Test results: patent publication US10568890B2 (Xi'An Libang Pharmaceutical Co., Ltd, priority 2012, dated 2020)
Converted amounts (≈) assume the structure as drawn.

Columns and labels:
[1] = Test of miscibility of formulae in vitro; format: physicochemical
Description: Ethyl lactate was mixed with ethyl oleate, glycerol triacetate, benzyl benzoate, castor oil, sesame oil, soybean oil, corn oil and olive oil respectively for miscibility, and then the conditions of miscibility were observed. Specifically, 1) adding 0.50 ml of ethyl lactate for each one into eight vials of 7 ml each, and then adding 0.50 ml of ethyl oleate, glycerol triacetate, benzyl benzoate, castor oil, sesame oil, soybean oil, corn oil and olive oil thereto respectively; swirl them for 5 min to be mixed uniformly, followed by standing for 10 min, and then observing and recording the conditions of miscibility of various solvents; 2) adding 0.30 ml of sesame oil, soybean oil, corn oil, olive oil, ethyl oleate, glycerol triacetate and benzyl benzoate respectively into seven vials of 7 ml each; and then adding 0.30 ml of castor oil and 0.30 ml of ethyl lactate thereto; swirl them for 5 min to be mixed uniformly, followed by standing for 10 min; and then observing and recording the conditions of miscibility of various solvents.

[2] = tested on: advanced breast cancer patients (postmenopausal); conditions: after treatment failure of first-line non-steroid drugs; cited from earlier work
[3] = Solubility test of fulvestrant in some solvents; format: physicochemical; conditions: 25° C.
Description: If it was dissolved completely, the addition of the drug was resumed to reach a saturated state. Nitrogen was introduced, and the vials were kept airtight and free of light for 1-2 days to reach a dissolution-precipitation balance.

miscibility of ethyl lactate ([1]; with benzyl benzoate, 0.50 ml each) | miscibility of ethyl lactate ([1]; with castor oil, 0.50 ml each) | miscibility of ethyl lactate ([1]; with corn oil, 0.50 ml each) | miscibility of ethyl lactate ([1]; with ethyl oleate, 0.50 ml each) | miscibility of ethyl lactate ([1]; with glycerol triacetate, 0.50 ml each) | miscibility of ethyl lactate ([1]; with mixed oil 1 (1:1 ethyl oleate and castor oil)) | miscibility of ethyl lactate ([1]; with mixed oil 2 (1:1 benzyl benzoate and castor oil)) | miscibility of ethyl lactate ([1]; with mixed oil 3 (1:1 glycerol triacetate and castor oil)) | miscibility of ethyl lactate ([1]; with mixed oil 4 (1:1 sesame oil and castor oil)) | miscibility of ethyl lactate ([1]; with mixed oil 5 (1:1 corn oil and castor oil)) | miscibility of ethyl lactate ([1]; with mixed oil 6 (1:1 olive oil and castor oil)) | miscibility of ethyl lactate ([1]; with mixed oil 7 (1:1 soybean oil and castor oil)) | miscibility of ethyl lactate ([1]; with olive oil, 0.50 ml each) | miscibility of ethyl lactate ([1]; with sesame oil, 0.50 ml each) | miscibility of ethyl lactate ([1]; with soybean oil, 0.50 ml each) | Solubility ([3]; in benzyl propionate) | Solubility ([3]; in isopentyl acetate) | Compound | overall response rate [2]
miscible | miscible | immiscible | miscible | miscible | miscible | miscible | miscible | miscible | miscible | miscible | miscible | immiscible | immiscible | immiscible | – | – | CCOC(=O)C(C)O (stereo not drawn) [ethyl lactate, ethyl α-hydroxylpropionate] | –
– | – | – | – | – | – | – | – | – | – | – | – | – | – | – | – | – | C=C1C[C@@H]2[C@H](CC[C@]3(C)C(=O)CC[C@@H]23)[C@@]2(C)C=CC(=O)C=C12 [exemestane] | 28%
– | – | – | – | – | – | – | – | – | – | – | – | – | – | – | 4.34 mg/mL (≈ 7.15 mM) | 50.98 mg/mL (≈ 84 mM) | C[C@]12CC[C@@H]3c4ccc(O)cc4C[C@@H](CCCCCCCCC[S+]([O-])CCCC(F)(F)C(F)(F)F)[C@H]3[C@@H]1CC[C@@H]2O (stereo partly shown) [fulvestrant] | 37%
